Where two headings read alike, the source gives them in different places.

The conditions of series [1]: octanol/water; cited from earlier work.
Series [2] is described as follows: Miscibility with water and lipophilic cosmetic solvents (Neutralöl, Paraffinöl). On Löslichkeit + Neutralöl auf: 10 g: key: +: klare Lösung; -: Zweiphasengemisch. On Löslichkeit + Neutralöl auf: 2,5 g: key: +: klare Lösung; -: Zweiphasengemisch. On Löslichkeit + Neutralöl auf: 5 g: key: +: klare Lösung; -: Zweiphasengemisch. The following applies: for Löslichkeit + Neutralöl auf: 2,5 g: 0,1 g PKR made up with Neutralöl to 2,5 g; for Löslichkeit + Neutralöl auf: 5 g: 0,1 g PKR made up with Neutralöl to 5 g; for Löslichkeit + Neutralöl auf: 10 g: 0,1 g PKR made up with Neutralöl to 10 g; for Löslichkeit + Paraffinöl auf: 5 g: 0,1 g PKR made up with Paraffinöl to 5 g; for Löslichkeit + Paraffinöl auf: 10 g: 0,1 g PKR made up with Paraffinöl to 10 g; for Löslichkeit + Wasser auf: 10 g: 0,1 g PKR made up with water to 10 g; for Löslichkeit + Wasser auf: 20 g: 0,1 g PKR made up with water to 20 g. Type of series: physicochemical. From the text:
Mischungen aus 40 Gew.-% Kühlreagenz (a) und jeweils 60 bzw. 50 Gew.-% Alkohol (b) wurden gemäß Beispiel 1 erzeugt bzw. mit 10 Gew.-% Wasser versetzt.
Anschließend wurde alternativ mit Wasser, Neutralöl oder Paraffinöl versetzt.

The conditions of series [3]: cited from earlier work.

As for `CC(O)CO` (stereo not shown) [1,2-Propandiol], the “log Kow” value in series [1] is on record as -0,90.

Regarding `CC(C)[C@@H]1CC[C@@H](C)C[C@H]1O` [L-Menthol], in series [2] (Lagertemperatur 8 °C), the “Löslichkeit + Neutralöl auf: 2,5 g” value is reported as “+”, the “Löslichkeit + Neutralöl auf: 5 g” value is “+”, the “Löslichkeit + Neutralöl auf: 10 g” value is given as “+” and the “Löslichkeit + Paraffinöl auf: 5 g” value is given as “+”. Further, in series [2] (Lagertemperatur 8 °C), the “Löslichkeit + Paraffinöl auf: 10 g” value is on record as “+”, the “Löslichkeit + Wasser auf: 10 g” value is given as “-” and the “Löslichkeit + Wasser auf: 20 g” value is “-”. Also, in series [2] (Lagertemperatur 20 °C), the “Löslichkeit + Neutralöl auf: 2,5 g” value is “+”, the “Löslichkeit + Neutralöl auf: 5 g” value is on record as “+”, the “Löslichkeit + Neutralöl auf: 10 g” value is “+” and the “Löslichkeit + Paraffinöl auf: 5 g” value is reported as “+”. Further, in series [2] (Lagertemperatur 20 °C), the “Löslichkeit + Paraffinöl auf: 10 g” value was “+”, the “Löslichkeit + Wasser auf: 10 g” value was “-” and the “Löslichkeit + Wasser auf: 20 g” value is listed as “-”. Also, the “Löslichkeit in Wasser” value in series [3] (water) was 0,355 g/L.

As to `CNC(=O)C(C)(C(C)C)C(C)C` [WS-23, 2-Isopropyl-N,2,3-trimethylbutanamid], in series [2] (Lagertemperatur 8 °C), the “Löslichkeit + Neutralöl auf: 2,5 g” value is “+”, the “Löslichkeit + Neutralöl auf: 5 g” value is recorded as “+”, the “Löslichkeit + Neutralöl auf: 10 g” value is “+” and the “Löslichkeit + Paraffinöl auf: 5 g” value was “-”. Moreover, in series [2] (Lagertemperatur 8 °C), the “Löslichkeit + Paraffinöl auf: 10 g” value is reported as “-”, the “Löslichkeit + Wasser auf: 10 g” value is listed as “-” and the “Löslichkeit + Wasser auf: 20 g” value was “-”. Besides, in series [2] (Lagertemperatur 20 °C), the “Löslichkeit + Neutralöl auf: 2,5 g” value is reported as “+”, the “Löslichkeit + Neutralöl auf: 5 g” value is reported as “+”, the “Löslichkeit + Neutralöl auf: 10 g” value was “+” and the “Löslichkeit + Paraffinöl auf: 5 g” value is “-”. For the same molecule, in series [2] (Lagertemperatur 20 °C), the “Löslichkeit + Paraffinöl auf: 10 g” value is on record as “-”, the “Löslichkeit + Wasser auf: 10 g” value is given as “-” and the “Löslichkeit + Wasser auf: 20 g” value is recorded as “+”. Also, in series [3] (bei 20 °C), the “Löslichkeit in Wasser” value is on record as “ca. 0,5 g/L”.

The record behind these values is patent EP3062762B1, “STABLE SOLUTIONS CONTAINING A PHYSIOLOGICAL COOLING REAGENT AND USE THEREOF” (priority 2013, dated 2015).
